Measurements taken from PMC2765246 (Journal of medicinal chemistry, 2008).

Legend:
Plasmodium falciparum = settings: P. falciparum growth inhibition, cited from earlier work; for IC50: read-out: IC50 (cell)
[1] = target: T1, P. vivax FPPS (farnesyl diphosphate synthase) (Plasmodium vivax, UniProt A5K4U6); assay: P. vivax FPPS inhibition, continuous spectrophotometric phosphate release assay; type: biochemical; settings: pIC50 (enzyme)
T1 sequence (A5K4U6 1-375): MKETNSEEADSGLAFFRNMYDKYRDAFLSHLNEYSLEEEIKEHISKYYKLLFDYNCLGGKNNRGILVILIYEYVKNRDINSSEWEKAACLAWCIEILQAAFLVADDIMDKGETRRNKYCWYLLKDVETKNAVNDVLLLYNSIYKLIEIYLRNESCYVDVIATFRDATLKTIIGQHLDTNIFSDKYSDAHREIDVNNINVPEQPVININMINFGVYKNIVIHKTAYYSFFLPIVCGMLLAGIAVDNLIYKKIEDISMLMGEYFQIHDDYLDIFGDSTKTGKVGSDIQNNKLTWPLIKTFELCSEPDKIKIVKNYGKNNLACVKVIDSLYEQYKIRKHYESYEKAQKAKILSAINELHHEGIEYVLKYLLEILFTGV

[2] = FPPS from Plasmodium vivax, pIC50 = −log10 IC50

Row | SMILES | pIC50 (cell) (Plasmodium falciparum) | IC50 [1, 2] | further results
1 | CCCCCCC(O)(P(=O)(O)O)P(=O)(O)O [Compound 1] | 5.9 |  | 
2 | CCCCCCCCCCCCCC(O)(P(=O)(O)O)P(=O)(O)O [Compound 2] | 5.7 |  | 
3 | CN(CCCCc1ccccc1)CCC(O)(P(=O)(O)O)P(=O)(O)O [Compound 3] | 5.5 |  | IC50 (Plasmodium falciparum): 2900 nM
4 | CCCCCCCCCC(O)(P(=O)(O)O)P(=O)(O)O [Compound 4] |  | 794 nM | 
5 | O=P(O)(O)C(O)(Cc1cccc(C(F)(F)F)c1)P(=O)(O)O [Compound 5] | 5.4 | 631 nM | 
6 | O=P(O)(O)C(O)(Cc1cccc(Cl)c1)P(=O)(O)O [Compound 6] | 5.4 |  | 
7 | O=P(O)(O)C(O)(Cc1cccc(F)c1)P(=O)(O)O [Compound 7] | 5.2 |  | 
8 | O=P(O)(O)C(Nc1ccc(Cl)cn1)P(=O)(O)O [Compound 8] | 5.0 |  | IC50 (Plasmodium falciparum): 11000 nM
9 | O=P(O)(O)C(O)(Cc1ccccc1)P(=O)(O)O [Compound 9] | 5.0 |  | 
10 | O=P(O)(O)C(O)(Cc1cccc(Br)c1)P(=O)(O)O [Compound 11] |  | 794 nM | 
11 | CN(CCCc1ccccc1)CCC(O)(P(=O)(O)O)P(=O)(O)O [Compound 13] | 4.6 |  | IC50 (Plasmodium falciparum): 23000 nM
12 | O=P(O)(O)C(Nc1nccs1)P(=O)(O)O [Compound 19] |  | 794 nM | 
13 | O=P(O)(O)C(O)(CSc1ccncc1)P(=O)(O)O [Compound 22] | 3.8 |  | 
14 | CN(Cc1ccccc1)C(P(=O)(O)O)P(=O)(O)O [Compound 24] | 3.7 | 794 nM | 
15 | Cc1ccc(C)c(COc2ccc(C)nc2NC(P(=O)(O)O)P(=O)(O)O)c1 [Compound 25] | 3.7 |  | 
16 | O=P(O)(O)C(O)(Cc1ccccn1)P(=O)(O)O [Compound 26] | 3.7 |  | IC50 [1]: 1000 nM
